Test results from patent US4912092A, “Methods for increasing extracellular adenosine and for stabilizing mast cells” (The Regents of the University of California, priority 1987, dated 1990).
“And” between values parts separate entries of the source, which are not always exact repeats. Equal entries are not always repeated. “Also recorded” adds a separate entry of the source.

Columns and labels:
[1] = test system: adenylosuccinase deficiency (autism); assay: Therapeutic trial in patients with adenylosuccinase deficiency (autism); type: in vivo, human
Text: (§1) Following authorization, therapeutic trials with AICA riboside were started in two patients with adenylosuccinase deficiency (autism). […] On Day 55, both patients were briefly readmitted for clinical, biochemical and psychiatric evaluation. […] Treatment was maintained until Day 71, and arrested at that date.

[2] = test system: Mouse bone marrow-derived mast cells; assay: Mast cell leukotriene C4 release (radioimmune assay); type: cell-based
Description: By preventing mast cell degranulation, it is possible to prevent or control a patient's allergic response. Bone marrow obtained from Balb/C mice femurs was cultured in a 1:1 mixture of Razin media and conditioned media, produced by co-culturing splenocytes from C57B1/6J and C3H mice in the presence of Concanavalin A as described by Razin et al. in the Proc. Natl. Acad. Sci. USA 28: 2559-2561, 1981. After weekly passaging and at least 15 days in tissue culture, the resulting cells were 90% pure mast cells and 95% viable as assessed by Trypan blue exclusion. Cells exposed to ribavirin in culture were washed three times prior to use in experiments. Parallel cultures of cells grown in media alone were used as controls for pharmacologically manipulated mast cells. Cell growth was assessed by counting cells at particular time points and comparing actual numbers of ribavirin-treated cells to numbers of cells grown in media alone.

[3] = dog, in vivo, iv
Text: Thirteen mongrel dogs were anesthetized with phenobarbital. […] C.V. Dis. 20; 55 (1977).

[4] = Plasma, CSF, erythrocyte and urine measurements in the patient trial; type: in vivo, human
Text: as §1
A correct assessment of the renal loss of the nucleoside could not be obtained.

ischemic myocardium = assay: Regional myocardial blood flow during coronary artery occlusion (radiolabelled microspheres); type: in vivo, dog
Text: FIG. 4. […] The means plus the standard deviations are graphed. […] Thirteen mongrel dogs were anesthetized with phenobarbital. […] C.V. Dis. 20; 55 (1977).

[5] = test system: pentylene tetrazol-induced seizures; assay: Pentylene tetrazol-induced seizures; type: in vivo, rat
[6] = dog, in vivo
Description: Thirteen mongrel dogs were anesthetized with phenobarbital. The anterior coronary vein was cannulated and a blood sample was collected into 2N perchloric acid. […] Regional myocardial blood flow was measured within 15 μm radiolabelled spheres infused into the left atzium at 5 and 60 minutes during the ischemic period, as described by Heymann et al. in Prog. […] The electrocardiogram and arterial pressure were monitored throughout the period of ischemia.

[7] = test system: HPRT+ neuroblastoma cells; assay: Adenosine excretion by ionophore-stimulated HPRT+ neuroblastoma cells; type: cell-based; conditions: for Concentration of Adenosine: HPRT+, AICA riboside 50 μM
Description: The history and properties of the cell line have been described by Hershfield et al. in Science, Vol. 197, p. 1284, 1977.
Catabolism of cellular ATP stores was stimulated by adding either 2-deoxyglucose or a calcium ionophore. At various times, the amount of adenosine released by the cells into the supernatant, or the amount of nucleotides remaining in the cells, was determined by mixing 30 μl of chilled 4.4N perchloric acid with 300 μl of supernatants, or by adding 300 μl of chilled 0.4N perchloric acid to the cells collected as pellets and centrifuging the mixtures at 500×G for 10 minutes at 4° C. […] 1245, 1975. Following centrifugation at 1500×G for three minutes at 4° C., the aqueous phase is removed and frozen at -20° C. until assayed for adenosine, inosine, or for nucleotides. Adenosine was evaluated isocratically on a C-18 microBondapak reverse phase column equilibrated with 4 millimolar potassium phosphate, (pH 3.4):acetonitrile 60% in water (95:5 v/v) buffer. Adenosine elutes at 8-10 minutes, and its identity was confirmed by its sensitivity to adenosine deaminase and by spiking with adenosine standards. The extracted samples from the cell pellet were analyzed for nucleotides by high pressure liquid chromatography on a Whatman Partisil-10 (SAX) column equilibrated with 10 millimolar potassium phosphate, pH 3.78, and eluted with a linear gradient to a 0.25 molar potassium phosphate, 0.5 molar KCl, pH 3.45. […] Peaks were quantitated by comparison with high pressure liquid chromatography analysis of suitable standards.
To induce ATP catabolism, the growth medium was replaced by medium containing micromolar amounts of the calcium ionophore A23187 and 1.0 μM deoxycoformycin.

inosine = assay: Venous inosine levels during coronary artery occlusion in dogs; type: in vivo, dog; conditions: over the 60-minute assay period (FIG. 5)
Description: (§2) Thirteen mongrel dogs were anesthetized with phenobarbital. […] C.V. Dis. 20; 55 (1977). […] Two of the surviving saline-treated animals fibrillated. […] The range was 4.4 to 100 μM.
That the increase in the levels of adenosine is due, at least in part, to a reduction in the amount of ATP that is converted to inosine was shown by analysis of venous blood from dogs in Example III for inosine levels.

adenosine = assay: Coronary venous adenosine concentrations during coronary artery occlusion in dogs; type: in vivo, dog
Description: FIG. 3. […] Coronary venous blood was collected into chilled 2N perchloric acid at various times before and after coronary artery occlusion. Supernatants from these extracts were neutralized with alamine and freon and evaluated by high performance liquid chromotography.
as §2

myocardial infarct = assay: Myocardial infarct size after tying off the left anterior descending coronary artery; type: in vivo, rat; conditions: bolus then osmotic mini-pump infusion, three weeks; p<0.05
Text: The animals were continuously exposed by infusion of either AICA riboside in saline or saline using osmotic mini-pumps well known to those in the art. After three weeks, the rats were sacrificed and infarct size quantitated by planimarizing stained sections of fixed hearts.

arrhythmias = assay: Arrhythmias (PVD, VTAC) during ischemia in dogs; type: in vivo, dog
Description: as §2
One consequence of myocardial ischemia is arrhythmia and the frequency of arrhythmias is related to the degree of reduced blood flow. […] Electrocardiograms recorded during ischemia of Example III were analyzed for the number of premature ventricular depolarizations (PVD) and ventricular tachycardia (VTAC) episodes.

[8] = after two months of continuous administration
[9] = one hour after intravenous administration
[10] = dogs 1-6 of the AICA riboside group

## NC(=O)c1ncn([C@@H]2O[C@H](CO)[C@@H](O)[C@H]2O)c1N [AICA riboside, 5-amino-4-imidazolecarboxamide riboside]
[1]; [8]
  autistic features, older patient: did not show any modification
  autistic features, younger sibling: clear-cut improvement
[1]; before and during the trial treatment
  haematology and clinical chemistry parameters: normal
[1]; during therapy
  parent's description of both patients: more pleasantly active and more easy to handle during therapy
[1]; oral 5 mg/kg/day up to 2×10 mg/kg/day
  clinical or biochemical side effects: no adverse effects; also recorded: No clinical or biochemical side effects were observed
[2]; 100 μM for six days, A23187 challenge 20 minutes, control 51
  supernatant leukotriene C4 concentration: 13 nanograms/10^6 cells
[2]; Mus musculus, Mast cell, 100 μM pretreatment for six days, p<0.01, read-out: reduction of leukotriene C4 release
  inhibition at 100 µM: 75%
[3]
  concentration: 27.2 µM
[4]; all dosages used, oral 5 to 2×10 mg/kg/day and intravenous 20 mg/kg/day
  AICA riboside in plasma and CSF: could not be detected
[4]; [9]
  AICA riboside in plasma: undetectable in plasma
  AICA riboside triphosphate in the erythrocytes: had similarly accumulated in the erythrocytes
[4]; oral as well as intravenous administration
  concentrations of AICA riboside triphosphate reached in erythrocytes: of the same magnitude as those of GTP
Ischemic myocardium; 5 and 60 minutes of occlusion
  regional myocardial blood flow to the ischemic myocardium versus saline: significantly greater
Ischemic myocardium; dog, in vivo
  flow to normal (non-ischemic) myocardium: did not alter flow to normal myocardium
Ischemic myocardium; dogs of Example IX
  collateral blood flow versus saline (radiolabelled microspheres): significantly greater
[5]; 2000 mg/kg (total dose) intraperitoneal (FIG. 12)
  latency to seizure: dramatic prolongation
[5]; 2000 mg/kg (total dose) intraperitoneal, 60 mg/kg pentylene tetrazol
  reduction of animals having seizures: 40%
[6]
  arterial blood gas-content and systemic venous granulocyte counts versus saline: not significantly different
  systemic arterial pressure and heart rate versus saline: no significant differences
[7]; 50 μM AICA riboside, A23187 and 1.0 μM deoxycoformycin
  adenosine secreted by treated cells versus control cells: at least twofold more adenosine than control cells
[7]; ionophore 0 μg/ml
  Concentration of Adenosine: < 0.01 µM
[7]; ionophore 10 μg/ml, control 0.329
  Concentration of Adenosine: 0.698 µM
inosine
  inosine levels in venous blood versus saline: more than twofold decrease
adenosine; 1 minute after reperfusion
  adenosine washout on reperfusion: significant rise
adenosine; 1 minute of ischemia, saline peak 0.22 +/-0.08 at 10 minutes
  peak adenosine level, coronary venous blood: 1.79 ± 0.35 µM
adenosine; 60 minutes of ischemia, saline undetectable
  adenosine level, coronary venous blood: 0.18 ± 0.15 µM
adenosine; before and during infusion
  venous adenosine prior to ischemia: < 0.01 µM
adenosine; dog, in vivo
  adenosine in blood from the right atrium (systemic blood): no detectable adenosine
Myocardial infarct
  reduction of infarct size compared to saline-treated controls: 33%
arrhythmias; average of six dogs, saline 18.2, p<0.01
  VTAC, average: 4.7 EPISODES/H
arrhythmias; average of six dogs, saline 112.2, p<0.01
  PVD, average: 37.8 EPISODES/H
arrhythmias; [10]
  PVD, individual dogs: 12 EPISODES/H and 10 EPISODES/H and 182 EPISODES/H and 4 EPISODES/H and 13 EPISODES/H and 6 EPISODES/H
  VTAC, individual dogs: 1 EPISODES/H and 0 EPISODES/H and 27 EPISODES/H
